The record followed here is patent US20250064951A1, “DENDRITIC POLYELECTROLYTE ZWITTERIONS, JANUS-TYPE CONJUGATE COMPRISING SAME AND USES THEREOF” (ArtProBio Co., Ltd., priority 2023, published 2025).

One test relates to BALB/c nude mice. Briefly: In vivo delivery of EGFP mRNA complex, eGFP imaging by IVIS. The settings on record: subcutaneous injection, 0.1 mg/kg. How it is done:
The complex ((+6)2(−6)2_conjugate 2_complex) was subcutaneously injected into BALB/c nude mice at 0.1 mg/kg, and then the expressed eGFP (enhanced green fluorescenct protein) was imaged and quantified with IVIS (in vivo imaging system). As a control group, only EGFP mRNA was used instead of the complex.

Another test relates to HeLa cells. Briefly: EGFP mRNA complex delivery and eGFP expression in HeLa cells by flow cytometry. Format: cell-based. The settings on record: complex with EGFP mRNA. How it is done:
HeLa cells were subcultured in DMEM supplemented with 10% FBS (fetal bovine serum), dispensed into each well at 1-3×10^4 cells/well, and cultured at 37° C. for 24 hours. The cells were treated with the (+6)2(−6)2_conjugate 2_complex or the (+6)2(−6)2_conjugate 3_complex at a concentration of […], respectively, and incubated at 37° C. for 4 hours. Afterwards, the cells were washed with Dulbecco's phosphate-buffered saline (DPBS), trypsinized, and resuspended in DPBS supplemented with 10% cell dissociation buffer (GIBCO) and 1% FBS. Then, the expressed eGFP (enhanced green fluorescent protein) was analyzed using a flow cytometer (BD LSR II SORT flow cytometer, BD Bioscience, USA).
Background: A flow cytometer gives signals particle by particle.

As for `CCCCCCCCCCCCCCCCCCC[C@H](CCCCNC(=O)CCCCCCCCCCCCCCC)C(=O)NCCCCC(NC(=O)[C@H](CCCCNC(=O)[C@H](CCCCNC(=O)[C@H](CCC(=O)O)NC(=O)[C@H](CCC(=O)O)NC(=O)[C@H](CCC(=O)O)NC(=O)[C@H](CCC(=O)O)NC(=O)[C@H](CCC(=O)O)NC(=O)[C@H](CCC(=O)O)NC(C)=O)NC(=O)[C@H](CCCNC(=N)N)NC(=O)[C@H](CCCNC(=N)N)NC(=O)[C@H](CCCNC(=N)N)NC(=O)[C@H](CCCNC(=N)N)NC(=O)[C@H](CCCNC(=N)N)NC(=O)[C@H](CCCNC(=N)N)NC(C)=O)NC(=O)[C@H](CCCCNC(=O)[C@H](CCC(=O)O)NC(=O)[C@H](CCC(=O)O)NC(=O)[C@H](CCC(=O)O)NC(=O)[C@H](CCC(=O)O)NC(=O)[C@H](CCC(=O)O)NC(=O)[C@H](CCC(=O)O)NC(C)=O)NC(=O)[C@H](CCCNC(=N)N)NC(=O)[C@H](CCCNC(=N)N)NC(=O)[C@H](CCCNC(=N)N)NC(=O)[C@H](CCCNC(=N)N)NC(=O)[C@H](CCCNC(=N)N)NC(=O)[C@H](CCCNC(=N)N)NC(C)=O)C(N)=O` (stereo partly drawn) [Example 7], the “in vivo mRNA delivery and eGFP protein expression (IVIS)” value in the test with BALB/c nude mice was “successfully delivered the mRNA in vivo”. In the test on HeLa cells (16 M or 32 M, 4 hours), the “delivery of EGFP mRNA into cells” value is “successfully delivered the mRNA into the nucleus and cytoplasm of the cells”. Also, the “efficiency of eGFP protein expression from internalized EGFP mRNA” value in the test on HeLa cells (flow cytometry) stood at 82.9%.
